Where two headings read alike, the source gives them in different places.
Assays:
[1] = Clinical study: saliva and plasma samples taken in parallel, correlation of lacosamide concentrations; format: in vivo, human; settings: for Kp: human, saliva
Method: One embodiment of the present disclosure relates to the use of saliva samples as a tool to assess the concentration of lacosamide in the body of a mammal, particularly a human being. […] Preferably, saliva samples should be taken at least about 1 hour, preferably at least about 2 hours after an actual administration of lacosamide to said mammal to allow a steady state concentration to form, and to allow the proportional distribution of lacosamide into the saliva.
Accordingly, one embodiment of the current invention relates to the use of a saliva sample to assess the concentration of lacosamide in the body of a mammal, particularly in the plasma of a patient This can be done based on the recognition that the concentration of lacosamide in saliva is about 1.17 times the concentration in plasma. Based on the measurement of lacosamide in saliva, the concentration in plasma can be easily assessed using the equation C plasma= C saliva x about 0.855 (see Example 3 in the experimental part). The determination of lacosamide in saliva should be done in the steady state, which is usually reached after about one hour to two hours after the last drug administration to the mammal/patient from which the saliva sample is to be taken.
In a clinical study saliva and plasma samples have been taken in parallel.
The concentrations of lacosamide can be calculated using the following equations: Saliva concentration of lacosamide = 0.065 + 1.1697*plasma concentration of lacosamide [formula] Plasma concentration of lacosamide = 0.855*saliva concentration of lacosamide [formula]
These equations were validated by comparing measured lacosamide plasma concentrations with plasma concentrations predicted from measured saliva concentrations.

[2] = Lacosamide plasma concentration of a patient, HPLC-UV assay with internal standard; format: in vivo; settings: human, patient taking 100 mg twice a day, sample 7 h after the last administration, read-out: measured lacosamide plasma concentration
Method: 100 µL of plasma are transferred into Eppendorf tubes.
Calibration samples are added 10 µL working solution.
Study samples are added 10 µL of working solution int standard
After mixing 300 µL of methanol were added, the mixture is vortexed again and centrifuged
10 minutes at room temperature. 70 µL of the supernatant were transferred into a autosamplervial.
15 µL were injected into the HPLC-system.
For calibration the mean response factor for the peakheight ratios at 10 µg/mL was calculated: • RF = peakheight lacosamide/ peakheight int. Std. • Concentration in samples were calculated: 10/RFcalibration*RFsample
A patient taking 100 mg twice a day is suffering from seizures. A sample is taken 7 h after the last administration of lacosamide. The measured lacosamide plasma concentration is 1.9 µg/mL. The newly requested Cmax is 5 µg/mL, and the new dose has to be dose_new = 100⋅(5⋅e^(-0.05⋅t))/(1.9⋅e^(-0.05⋅1h)) = 195 mg bid (dose has to be doubled) [formula]

[3] = Expected plasma Cmax at bid doses, used for individual dose adaptation; format: in vivo
Method: Based on the determination of the actual lacosamide concentration in plasma (Cmessured) measured at time t (in hours after actual administration) and the comparison with the target concentration, an individual dosing may be adapted according to the following formula dose_new = dose_old⋅(Cmax,expected ⋅e^(-0.05⋅t))/(Cmeasured ⋅e^(-0.05⋅1h)) [formula]
The expected Cmax is usually at about 5, 10, 15, or 20 µg/mL for dose 100, 200, 300, or 400 mg bid.

COC[C@@H](NC(C)=O)C(=O)NCc1ccccc1 [Lacosamide, (R)-2-acetamido-N-benzyl-3-methoxypropionamide]
correlation between lacosamide concentrations in saliva and plasma ([1]; Figure 2): excellent correlation | Kp ([1]; regression equation with intercept 0.065, read-out: slope of Saliva concentration of lacosamide versus plasma concentration of lacosamide): 1.17 | Kp ([1]; steady state, about one to two hours after last administration, read-out: concentration of lacosamide in saliva relative to the concentration in plasma): ~1.17 | concentration at 7 h [2]: 1900 ng/mL | Cmax ([3]; dose 100 mg bid): ~5000 ng/mL | Cmax ([3]; dose 200 mg bid): ~10000 ng/mL | Cmax ([3]; dose 300 mg bid): ~15000 ng/mL | Cmax ([3]; dose 400 mg bid): ~20000 ng/mL

Reference: patent publication EP2378291A1, “Lacosamide detection assay” (UCB Pharma GmbH, priority 2010, dated 2011)
